Measured values: ChEMBL document CHEMBL3885881, “DrugMatrix”

Organism: Rattus norvegicus
Test: DrugMatrix - Regimen: Daily Repeat
Assay type: toxicity, organism-based, Sprague-Dawley
Parameters: regimen Daily Repeat, gender Male, age 6-8 weeks
Conditions: in vivo, sc, route subcutaneous, […]; for ABSOLUTE BASOPHIL / ABSOLUTE EOSINOPHIL / ABSOLUTE LYMPHOCYTE / ABSOLUTE MONOCYTE / ABSOLUTE SEGMENTED NEUTROPHIL / BASOPHIL / EOSINOPHIL / ERYTHROCYTE COUNT / HEMATOCRIT / HEMOGLOBIN / LEUKOCYTE COUNT / LYMPHOCYTE / MEAN CORPUSCULAR HEMOGLOBIN / MEAN CORPUSCULAR HEMOGLOBIN CONCENTRATION / MEAN CORPUSCULAR VOLUME / MONOCYTE / NEUTROPHIL / NUCLEATED RED BLOOD CELLS / PLATELET COUNT: tissue Blood; for ALANINE AMINOTRANSFERASE / ALBUMIN / ALKALINE PHOSPHATASE / ASPARTATE AMINOTRANSFERASE / BLOOD UREA NITROGEN / CARBON DIOXIDE / CHLORIDE / CHOLESTEROL / CREATINE PHOSPHOKINASE / CREATININE / GLUCOSE / LACTATE DEHYDROGENASE / LIPASE / PHOSPHORUS / POTASSIUM / SODIUM / TOTAL BILIRUBIN / TOTAL PROTEIN / URIC ACID: tissue Plasma
[1] = 7 mg/kg, 72 h, dose level High, time 3 day
[2] = 7 mg/kg, 120 h, dose level High, time 5 day
[3] = 72 h, dose 1.5 mg/Kg, dose level Low, time 3 day
[4] = 120 h, dose 1.5 mg/Kg, dose level Low, time 5 day

**Q.** What does the source list for `CC1=C(/C=C/C(C)=C/C=C/C(C)=C/C(=O)O)C(C)(C)CCC1` [TRETINOIN]?
**A.** ABSOLUTE BASOPHIL [1]: 0 CELLS/uL; ABSOLUTE EOSINOPHIL [1]: 0 CELLS/uL; ABSOLUTE LYMPHOCYTE [1]: 16685.33 CELLS/uL; ABSOLUTE MONOCYTE [1]: 222.33 CELLS/uL; ABSOLUTE SEGMENTED NEUTROPHIL [1]: 2859 CELLS/uL; BASOPHIL [1]: 0%; EOSINOPHIL [1]: 0%; ERYTHROCYTE COUNT [1]: 5.42 x10E6/uL; HEMATOCRIT [1]: 34.57%; HEMOGLOBIN [1]: 12.7 G/DL; LEUKOCYTE COUNT [1]: 19.77 x10E3/uL; LYMPHOCYTE [1]: 84%; MEAN CORPUSCULAR HEMOGLOBIN [1]: 23.43 pg; MEAN CORPUSCULAR HEMOGLOBIN CONCENTRATION [1]: 36.73 G/DL; MEAN CORPUSCULAR VOLUME [1]: 63.77 fL; MONOCYTE [1]: 1%; NEUTROPHIL [1]: 15%; NUCLEATED RED BLOOD CELLS [1]: 0 /100WBC; PLATELET COUNT [1]: 1323.33 x10E3/uL; ALANINE AMINOTRANSFERASE [1]: 50 u/L; ALBUMIN [1]: 4.03 G/DL; ALKALINE PHOSPHATASE [1]: 328.67 u/L; ASPARTATE AMINOTRANSFERASE [1]: 77.33 u/L; BLOOD UREA NITROGEN [1]: 15.67 mg/dL; CARBON DIOXIDE [1]: 15 mmol/L; CHLORIDE [1]: 103.67 MEQ/L; CHOLESTEROL [1]: 79 mg/dL; CREATINE PHOSPHOKINASE [1]: 311.33 u/L; CREATININE [1]: 0.19 mg/dL; GLUCOSE [1]: 165.33 mg/dL; LACTATE DEHYDROGENASE [1]: 120.33 u/L; LIPASE [1]: 9.67 u/L; PHOSPHORUS [1]: 13.53 mg/dL; POTASSIUM [1]: 7.16 MEQ/L; SODIUM [1]: 147 MEQ/L; TOTAL BILIRUBIN [1]: 0.2 mg/dL; TOTAL PROTEIN [1]: 5.97 G/DL; URIC ACID [1]: 1.5 mg/dL; ABSOLUTE BASOPHIL [2]: 0 CELLS/uL; ABSOLUTE EOSINOPHIL [2]: 71.67 CELLS/uL; ABSOLUTE LYMPHOCYTE [2]: 17691.67 CELLS/uL; ABSOLUTE MONOCYTE [2]: 531.67 CELLS/uL; ABSOLUTE SEGMENTED NEUTROPHIL [2]: 3905 CELLS/uL; BASOPHIL [2]: 0%; EOSINOPHIL [2]: 0.33%; ERYTHROCYTE COUNT [2]: 5.84 x10E6/uL; HEMATOCRIT [2]: 36.1%; HEMOGLOBIN [2]: 13.37 G/DL; LEUKOCYTE COUNT [2]: 22.2 x10E3/uL; LYMPHOCYTE [2]: 79.67%; MEAN CORPUSCULAR HEMOGLOBIN [2]: 22.9 pg; MEAN CORPUSCULAR HEMOGLOBIN CONCENTRATION [2]: 37.03 G/DL; MEAN CORPUSCULAR VOLUME [2]: 61.8 fL; MONOCYTE [2]: 2.33%; NEUTROPHIL [2]: 17.67%; NUCLEATED RED BLOOD CELLS [2]: 0 /100WBC; PLATELET COUNT [2]: 1087.33 x10E3/uL; ALANINE AMINOTRANSFERASE [2]: 46.33 u/L; ALBUMIN [2]: 3.87 G/DL; ALKALINE PHOSPHATASE [2]: 319.67 u/L; ASPARTATE AMINOTRANSFERASE [2]: 88 u/L; BLOOD UREA NITROGEN [2]: 14.67 mg/dL; CARBON DIOXIDE [2]: 33.33 mmol/L; CHLORIDE [2]: 103.33 MEQ/L; CHOLESTEROL [2]: 75.67 mg/dL; CREATINE PHOSPHOKINASE [2]: 348 u/L; CREATININE [2]: 0.28 mg/dL; GLUCOSE [2]: 172.33 mg/dL; LACTATE DEHYDROGENASE [2]: 105.67 u/L; LIPASE [2]: 12 u/L; PHOSPHORUS [2]: 13.8 mg/dL; POTASSIUM [2]: 6.84 MEQ/L; SODIUM [2]: 147.23 MEQ/L; TOTAL BILIRUBIN [2]: 0.13 mg/dL; TOTAL PROTEIN [2]: 6.07 G/DL; URIC ACID [2]: 1.8 mg/dL; ABSOLUTE BASOPHIL [3]: 0 CELLS/uL; ABSOLUTE EOSINOPHIL [3]: 41.67 CELLS/uL; ABSOLUTE LYMPHOCYTE [3]: 10665.33 CELLS/uL; ABSOLUTE MONOCYTE [3]: 55.67 CELLS/uL; ABSOLUTE SEGMENTED NEUTROPHIL [3]: 2104 CELLS/uL; BASOPHIL [3]: 0%; EOSINOPHIL [3]: 0.33%; ERYTHROCYTE COUNT [3]: 4.74 x10E6/uL; HEMATOCRIT [3]: 30.27%; HEMOGLOBIN [3]: 11.93 G/DL; LEUKOCYTE COUNT [3]: 12.87 x10E3/uL; LYMPHOCYTE [3]: 83.67%; MEAN CORPUSCULAR HEMOGLOBIN [3]: 25.23 pg; MEAN CORPUSCULAR HEMOGLOBIN CONCENTRATION [3]: 39.47 G/DL; MEAN CORPUSCULAR VOLUME [3]: 63.87 fL; MONOCYTE [3]: 0.33%; NEUTROPHIL [3]: 15.67%; NUCLEATED RED BLOOD CELLS [3]: 0 /100WBC; PLATELET COUNT [3]: 1093.33 x10E3/uL; ALANINE AMINOTRANSFERASE [3]: 51 u/L; ALBUMIN [3]: 4.23 G/DL; ALKALINE PHOSPHATASE [3]: 460.67 u/L; ASPARTATE AMINOTRANSFERASE [3]: 100 u/L; BLOOD UREA NITROGEN [3]: 15.67 mg/dL; CARBON DIOXIDE [3]: 22.33 mmol/L; CHLORIDE [3]: 107.67 MEQ/L; CHOLESTEROL [3]: 98.33 mg/dL; CREATINE PHOSPHOKINASE [3]: 387.67 u/L; CREATININE [3]: 0.23 mg/dL; GLUCOSE [3]: 164.33 mg/dL; LACTATE DEHYDROGENASE [3]: 522.33 u/L; LIPASE [3]: 11.33 u/L; PHOSPHORUS [3]: 12.5 mg/dL; POTASSIUM [3]: 6.67 MEQ/L; SODIUM [3]: 150.27 MEQ/L; TOTAL BILIRUBIN [3]: 0.27 mg/dL; TOTAL PROTEIN [3]: 6.27 G/DL; URIC ACID [3]: 1.97 mg/dL; ABSOLUTE BASOPHIL [4]: 0 CELLS/uL; ABSOLUTE EOSINOPHIL [4]: 0 CELLS/uL; ABSOLUTE LYMPHOCYTE [4]: 9182.33 CELLS/uL; ABSOLUTE MONOCYTE [4]: 21 CELLS/uL; ABSOLUTE SEGMENTED NEUTROPHIL [4]: 1630 CELLS/uL; BASOPHIL [4]: 0%; EOSINOPHIL [4]: 0%; ERYTHROCYTE COUNT [4]: 5.54 x10E6/uL; HEMATOCRIT [4]: 34.87%; HEMOGLOBIN [4]: 12.9 G/DL; LEUKOCYTE COUNT [4]: 10.83 x10E3/uL; LYMPHOCYTE [4]: 85%; MEAN CORPUSCULAR HEMOGLOBIN [4]: 23.27 pg; MEAN CORPUSCULAR HEMOGLOBIN CONCENTRATION [4]: 37 G/DL; MEAN CORPUSCULAR VOLUME [4]: 62.9 fL; MONOCYTE [4]: 0.33%; NEUTROPHIL [4]: 14.67%; NUCLEATED RED BLOOD CELLS [4]: 0 /100WBC; PLATELET COUNT [4]: 981.67 x10E3/uL; ALANINE AMINOTRANSFERASE [4]: 52 u/L; ALBUMIN [4]: 3.9 G/DL; ALKALINE PHOSPHATASE [4]: 336.33 u/L; ASPARTATE AMINOTRANSFERASE [4]: 91 u/L; BLOOD UREA NITROGEN [4]: 16.33 mg/dL; CARBON DIOXIDE [4]: 24.33 mmol/L; CHLORIDE [4]: 107 MEQ/L; CHOLESTEROL [4]: 79 mg/dL; CREATINE PHOSPHOKINASE [4]: 270.33 u/L; CREATININE [4]: 0.17 mg/dL; GLUCOSE [4]: 180.33 mg/dL; LACTATE DEHYDROGENASE [4]: 147.67 u/L; LIPASE [4]: 10.33 u/L; PHOSPHORUS [4]: 14.17 mg/dL; POTASSIUM [4]: 6.48 MEQ/L; SODIUM [4]: 147.97 MEQ/L; TOTAL BILIRUBIN [4]: 0.23 mg/dL; TOTAL PROTEIN [4]: 6.07 G/DL; URIC ACID [4]: 2.07 mg/dL
